Experimental data: US20250134855A1, “CO[…] AND METHODS OF USING SAME” (LYKOS THERAPEUTICS, INC., priority 2022, published 2025)
Read-outs that look alike come from different tables or passages of the source.

Assay: Study MPKF: plasma pharmacokinetics of MDMA and MDA, single 120 mg MDMA·HCl, fasted/fed
Type: in vivo, human
Details: for Tmax: median
Text: The MPKF was a Phase 1, open-label, randomized sequence, multi-dose, 2-period crossover food effect study in 16 healthy individuals. The MPKF study evaluated plasma concentrations of both MDMA and the active metabolite 3,4-methylenedioxyamphetamine (MDA). Summary PK Parameters of the preliminary data was based on interim analysis are presented in Table 12 Table 12 Table 12, and Table 13 Table 13 Table 13 for MDMA and MDA, respectively.
Participants were randomized to receive 1 of 2 conditions before the other: • Fasted Treatment: at least 10 hours of fasting followed by administration of MDMA HCl with 240 mL water. • Fed Treatment: at least 10 hours of fasting followed by a high-fat (approximately 50% of total caloric content of the meal) and high-calorie (approximately 800 to 1000 calories) meal was consumed within 30 minutes prior to IMP administration.
Participants remained at the clinical research unit (CRU) for each Dosing Session from the time of check-in on the night before dosing until discharge 48 hours after dosing for collection of serial blood samples for PK analysis and safety monitoring. IMP was administered on Day 1 following the treatment sequence to which the participant was randomized. An additional outpatient visit occurred 72 hours after dosing to collect a final PK sample, commensurate with the expected PK profiles of MDMA and MDA. Safety assessments were also performed at this visit.
The washout period between Dosing Sessions was at least 14 days. If a participant experienced emesis within 4 hours of administration, they were to be withdrawn from the study and replaced with a new participant. An End of Study Visit was performed 2 to 10 days after the completion of the final Dosing Session 72-hour follow-up. An informal interim analysis was planned to be conducted after at least 5 participants completed at least 1 Dosing Session to examine PK variability.
The API was a white crystalline powder of pharmaceutical quality, made according to current Good Manufacturing Practices (cGMP) for human use.
Participants: Sixteen healthy individuals were recruited for the study.
Intervention: The study was conducted as a Phase 1, open-label, randomized sequence, multi-dose, 2-period crossover food effect study. Each participant received multiple doses of MDMA, and plasma concentrations of both MDMA and the active metabolite MDA were measured.
Sample Collection: Blood samples were collected at various time points up to 72 hours after dosing. The samples were analyzed using validated liquid chromatography-tandem mass spectrometry (LC-MS/MS) methods.
Data Analysis: The summary PK parameters were presented in Table 12 for MDMA and Table 13 for MDA. The data were analyzed using descriptive statistics, and the mean and standard deviation were calculated. The results were compared between the two periods and analyzed for food effects. Statistical analyses were performed using appropriate methods, such as analysis of variance (ANOVA) and paired t-tests. A p-value of less than 0.05 was considered statistically significant.

[1] = Fasted (N = 15), 120 mg MDMA·HCl, geometric mean
[2] = Fed (N = 14), 120 mg MDMA·HCl, geometric mean

Compound: CC(N)Cc1ccc2c(c1)OCO2 (centres unmarked) [MDA, 3,4-methylenedioxyamphetamine]
- higher plasma PK values in intermediate relative to normal CYP2D6 metabolizers (8 intermediate, 8 normal metabolizers): approximately 13%
- Cmax, Geometric LSM (Fasted): 12.39 ng/mL
- CL/F [1]: 302.8 L/h
- Cmax [1]: 12 ng/mL
- Tlag [1]: 0.6 h
- Tmax (Fasted (N = 15), 120 mg MDMA·HCl): 6 h
- Cmax, Geometric LSM (Fed): 11.92 ng/mL
- CL/F [2]: 270.7 L/h
- Cmax [2]: 12 ng/mL
- Tlag [2]: 0.7 h
- Tmax (Fed (N = 14), 120 mg MDMA·HCl): 7 h
- Cmax (both sexes, human, plasma, po, single 120 mg dose of MDMA·HCl, fasting healthy males and females, read-out: Cmax): 13.3 ng/mL
- AUC0-72, Geometric Mean Ratio (fed vs fasted): 0.98
- AUC0-inf, Geometric Mean Ratio (fed vs fasted): 0.99
- AUC0-t, Geometric Mean Ratio (fed vs fasted): 0.90
- Cmax, Geometric Mean Ratio (fed vs fasted): 0.96
- effect of food on exposure (high-fat meal vs fasting, single 120 mg MDMA·HCl): not affected by food
- AUC0-inf of MDA relative to MDMA (human, plasma, oral, 120 mg): less than 10%
- peak plasma levels of MDA relative to MDMA (human, plasma, oral, 120 mg): less than 10%
- AUC(0-t) (human, plasma, oral, 120 mg, Fasted, read-out: AUC0-72, Geometric LSM): 312 ng·h/mL
- AUC(0-inf) (human, plasma, oral, 120 mg, Fasted, read-out: AUC0-inf, Geometric LSM): 331 ng·h/mL
- AUC(0-t) (human, plasma, oral, 120 mg, Fasted, read-out: AUC0-t, Geometric LSM): 282 ng·h/mL
- AUC(0-t) (human, plasma, oral, 120 mg, Fed, read-out: AUC0-72, Geometric LSM): 306 ng·h/mL
- AUC(0-inf) (human, plasma, oral, 120 mg, Fed, read-out: AUC0-inf, Geometric LSM): 328 ng·h/mL
- AUC(0-t) (human, plasma, oral, 120 mg, Fed, read-out: AUC0-t, Geometric LSM): 254 ng·h/mL
- Vd/F (human, plasma, po, 120 mg, Fasted (N = 15), 120 mg MDMA·HCl, geometric mean): 5520 L
- AUC(0-t) (human, plasma, po, 120 mg, Fasted (N = 15), 120 mg MDMA·HCl, geometric mean, read-out: AUC0-72): 313 ng·h/mL
- AUC(0-inf) (human, plasma, po, 120 mg, Fasted (N = 15), 120 mg MDMA·HCl, geometric mean, read-out: AUC0-inf): 330 ng·h/mL
- AUC(0-t) (human, plasma, po, 120 mg, Fasted (N = 15), 120 mg MDMA·HCl, geometric mean, read-out: AUC0-t): 282 ng·h/mL
- half-life (human, plasma, po, 120 mg, Fasted (N = 15), 120 mg MDMA·HCl, geometric mean, read-out: T1/2 (converted)): 12.6 h
- Vd/F (human, plasma, po, 120 mg, Fed (N = 14), 120 mg MDMA·HCl, geometric mean): 5000 L
- AUC(0-t) (human, plasma, po, 120 mg, Fed (N = 14), 120 mg MDMA·HCl, geometric mean, read-out: AUC0-72): 322 ng·h/mL
- AUC(0-inf) (human, plasma, po, 120 mg, Fed (N = 14), 120 mg MDMA·HCl, geometric mean, read-out: AUC0-inf): 369 ng·h/mL
- AUC(0-t) (human, plasma, po, 120 mg, Fed (N = 14), 120 mg MDMA·HCl, geometric mean, read-out: AUC0-t): 255 ng·h/mL
- half-life (human, plasma, po, 120 mg, Fed (N = 14), 120 mg MDMA·HCl, geometric mean, read-out: T1/2 (converted)): 12.8 h
- AUC(0-inf) (human, plasma, po, 120 mg, single 120 mg dose of MDMA·HCl, fasting, read-out: AUC0-inf): 374 ng·h/mL
- half-life (human, plasma, po, 120 mg, single 120 mg dose of MDMA·HCl, fasting, read-out: t1/2 (converted)): 12.8 h
- Tmax (single 120 mg dose of MDMA·HCl, fasting): 6 h
